Consider 23 compounds from US10125118B2, “Heteroaryl compounds and their use as therapeutic drugs” (Dong-A Socio Holdings Co., Ltd., priority 2015, dated 2018).

pIC50: −log10 of the molar value. Some results are limits rather than exact numbers.

The test system of assay [1] is CD8-MerTK in Ba/F3-CDM cells. Nature of the assay: In cell MER kinase assay, Ba/F3-CDM cell proliferation without IL-3 (Celltiter-Glo). The conditions noted are these: 48 hours compound treatment, read-out: Cell growth inhibition (GI50). The format is cell-based, murine. The procedure, abridged: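 Ba/F3 cells, IL-3-dependent, transfected with CD8-MerTK and grown without IL-3 in DMEM/10% FBS. IL-3-supplemented Ba/F3 cells run in parallel as a cytotoxicity control.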

In assay [2] the target is human c-MER catalytic domain (Homo sapiens (Human), UniProt Q12866). The assay can be described thus: LanthaScreen TR-FRET kinase assay, c-MER. The conditions noted are these: read-out: Mer TK inhibition (IC50); Biochemical IC50, TR-FRET, 10 uM ATP.
human c-MER catalytic domain, sequence (Q12866 587-858): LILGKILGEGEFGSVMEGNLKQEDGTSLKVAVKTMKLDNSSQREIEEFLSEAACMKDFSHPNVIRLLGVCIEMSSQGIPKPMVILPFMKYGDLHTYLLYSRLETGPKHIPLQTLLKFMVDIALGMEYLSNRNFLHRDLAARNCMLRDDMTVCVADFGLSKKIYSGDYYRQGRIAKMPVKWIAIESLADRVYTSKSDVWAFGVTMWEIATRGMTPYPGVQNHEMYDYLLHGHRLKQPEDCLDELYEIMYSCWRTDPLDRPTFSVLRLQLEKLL

Regarding `CN1CCN(Cc2ccc(-c3ccc(CO[C@H]4CCC[C@@H]4NC(=O)c4cc(-c5cnn(C)c5)cnc4N)cc3)cc2[N+](=O)[O-])CC1` [Example 200, 2-amino-5-(1-methyl-1H-pyrazol-4-yl)-N-((1S,2S)-2-((4′-((4-methylpiperazin-1-yl)methyl)-3′-nitro-[1,1′-biphenyl]-4-yl)methoxy)-cyclopentyl)nicotinamide], the 50% growth inhibitory concentration (GI50) in assay [1] lay in the range of 100 to 500 nM. Besides, the pIC50 in assay [2] is more than 8.00.

Regarding `Cn1cc(-c2cnc(N)c(C(=O)N[C@H]3CCC[C@@H]3OCc3ccc(-c4ccc(CC5CCN(CCO)CC5)cc4)cc3)c2)cn1` [Example 240, 2-amino-N-((1S,2S)-2-((4′-((1-(2-hydroxyethyl)piperidin-4-yl)-methyl)-[1,1′-biphenyl]-4-yl)methoxy)cyclopentyl)-5-(1-methyl-1H-pyrazol-4-yl)-nicotinamide], the 50% growth inhibitory concentration (GI50) in assay [1] was less than 100 nM. Moreover, the negative logarithm of the IC50 (pIC50) in assay [2] is more than 8.00.

In the case of `CC(c1ccc(-c2ccc(CO[C@H]3CCC[C@@H]3NC(=O)c3cc(-c4cccnc4F)cnc3N)cc2)cc1)N1CCN(CCO)CC1` (stereo partly drawn) [Example 238, 6-amino-2′-fluoro-N-((1S,2S)-2-((4′-(1-(4-(2-hydroxyethyl)-piperazin-1-yl)ethyl)-[1,1′-biphenyl]-4-yl)methoxy)cyclopentyl)-[3,3′-bipyridine]-5-carboxamide], the GI50 in assay [1] was less than 100 nM. In addition, in assay [2], the negative logarithm of the IC50 (pIC50) is more than 8.00.

As to `Cn1cc(-c2cnc(N)c(C(=O)N[C@H]3CCC[C@@H]3OCc3ccc(C#CCCCCO)cc3)c2)cn1` [Example 251, 2-amino-N-((1S,2S)-2-((4-(6-hydroxyhex-1-yn-1-yl)benzyl)oxy)-cyclopentyl)-5-(1-methyl-1H-pyrazol-4-yl)nicotinamide], the GI50 in assay [1] was more than 1000 nM. The negative logarithm of the IC50 (pIC50) in assay [2] was more than 8.00.

`CN1CCN(C2(c3ccc(-c4ccc(CO[C@H]5CCC[C@@H]5NC(=O)c5cc(-c6ccc(F)nc6)cnc5N)cc4)cc3)CC2)CC1` [Example 224, 6-amino-6′-fluoro-N-((1S,2S)-2-((4′-(1-(4-methylpiperazin-1-yl)cyclopropyl)-[1,1′-biphenyl]-4-yl)methoxy)cyclopentyl)-[3,3′-bipyridine]-5-carboxamide]: the GI50 in assay [1] is 100 to 500 nM. The negative-log IC50 (pIC50) in assay [2] is more than 8.00.

Take `C[C@@H](c1ccc(-c2ccc(CO[C@H]3CCC[C@@H]3NC(=O)c3cc(-c4ccc(F)nc4)cnc3N)cc2)cc1)N1CCN(C)CC1` [Example 222, 6-amino-6′-fluoro-N-((1S,2S)-2-((4′-((S)-1-(4-methylpiperazin-1-yl)ethyl)-[1,1′-biphenyl]-4-yl)methoxy)cyclopentyl)-[3,3′-bipyridine]-5-carboxamide]: the 50% growth inhibitory concentration (GI50) in assay [1] was less than 100 nM. Moreover, the pIC50 in assay [2] was more than 8.00.

Regarding `C[C@@H]1CN(Cc2ccc(-c3ccc(CO[C@H]4CCC[C@@H]4NC(=O)c4cc(-c5cnn(C)c5)cnc4N)cc3)cc2)C[C@H](C)N1C` [Example 190, 2-amino-5-(1-methyl-1H-pyrazol-4-yl)-N-((1S,2S)-2-((4′-((cis-3,4,5-trimethylpiperazin-1-yl)methyl)-[1,1′-biphenyl]-4-yl)methoxy)cyclopentyl)-nicotinamide], the GI50 in assay [1] was less than 100 nM. Also, the pIC50 in assay [2] is more than 8.00.

Regarding `CCC1CN(Cc2ccc(-c3ccc(CO[C@H]4CCC[C@@H]4NC(=O)c4cc(-c5cnn(C)c5)cnc4N)cc3)cc2)CCN1C` (stereo partly drawn) [Example 188, 2-amino-N-((1S,2S)-2-((4′-((3-ethyl-4-methylpiperazin-1-yl)-methyl)-[1,1′-biphenyl]-4-yl)methoxy)cyclopentyl)-5-(1-methyl-1H-pyrazol-4-yl)-nicotinamide], the concentration for 50% growth inhibition (GI50) in assay [1] is less than 100 nM. The pIC50 in assay [2] was more than 8.00.

For `Cn1cc(-c2cnc(N)c(C(=O)N[C@H]3CNC[C@@H]3OCc3ccc(-c4ccc(C(C)(C)N5CCN(CCO)CC5)cc4)cc3)c2)cn1` [Example 440, 2-amino-N-((3S,4S)-4-((4′-(2-(4-(2-hydroxyethyl)piperazin-1-yl)propan-2-yl)-[1,1′-biphenyl]-4-yl)methoxy)pyrrolidin-3-yl)-5-(1-methyl-1H-pyrazol-4-yl)nicotinamide], the 50% growth inhibitory concentration (GI50) in assay [1] is more than 1000 nM. For the same compound, the pIC50 in assay [2] is more than 8.00.

For the compound `Cc1ccc(CO[C@H]2CCC[C@@H]2NC(=O)c2cc(-c3ccc(CN4CCC(N5CCCC5)CC4)c(F)c3)cnc2N)cc1C` [Example 325, 2-amino-N-((1S,2S)-2-((3,4-dimethylbenzyl)oxy)cyclopentyl)-5-(3-fluoro-4-((4-(pyrrolidin-1-yl)piperidin-1-yl)methyl)phenyl)nicotinamide], the GI50 in assay [1] was more than 1000 nM. Further, in assay [2], the negative logarithm of the IC50 (pIC50) is more than 8.00.

With `CN(C)CCCOc1ccc(-c2ccc(CO[C@H]3CCC[C@@H]3NC(=O)c3cc(-c4cnn(C)c4)cnc3N)cc2)cc1` [Example 246, 2-amino-N-((1S,2S)-2-((4′-(3-(dimethylamino)propoxy)-[1,1′-biphenyl]-4-yl)methoxy)cyclopentyl)-5-(1-methyl-M-pyrazol-4-yl)nicotinamide], the GI50 in assay [1] was 100 to 500 nM. Besides, in assay [2], the pIC50 was more than 8.00.

In the case of `CN1CCN(C(C)(C)c2ccc(-c3ccc(CO[C@H]4COC[C@@H]4NC(=O)c4cc(-c5cnn(C)c5)cnc4N)cc3)cc2)CC1` [Example 450, 2-amino-5-(1-methyl-1H-pyrazol-4-yl)-N-((3S,4R)-4-((4′-(2-(4-methylpiperazin-1-yl)propan-2-yl)-[1,1′-biphenyl]-4-yl)methoxy)tetrahydrofuran-3-yl)nicotinamide], the concentration for 50% growth inhibition (GI50) in assay [1] is less than 100 nM. Moreover, the pIC50 in assay [2] was more than 8.00.

On to `Cc1cnc(N)c(C(=O)N[C@H]2CCC[C@@H]2OCc2ccc(-c3ccc(CN4CCN(C)CC4)cc3)cc2)c1` [Example 374, 2-amino-5-methyl-N-((1S,2S)-2-((4′-((4-methylpiperazin-1-yl)-methyl)-[1,1′-biphenyl]-4-yl)methoxy)cyclopentyl)nicotinamide], for which, in assay [1], the concentration for 50% growth inhibition (GI50) was 100 to 500 nM. Moreover, the pIC50 in assay [2] was more than 8.00.

For `CCc1cc(CO[C@H]2CNC[C@@H]2NC(=O)c2cc(-c3ccccc3)cnc2N)ccc1C` [Example 394, 2-amino-N-((3S,4S)-4-((3-ethyl-4-methylbenzyl)oxy)pyrrolidin-3-yl)-5-phenylnicotinamide], the 50% growth inhibitory concentration (GI50) in assay [1] lay in the range of 500 to 1000 nM. Besides, the pIC50 in assay [2] is more than 8.00.

`Cn1cc(-c2cnc(N)c(C(=O)N[C@H]3CCC[C@@H]3OCc3ccc(C#CCCCO)cc3)c2)cn1` [Example 250, 2-amino-N-((1S,2S)-2-((4-(5-hydroxypent-1-yn-1-yl)-benzyl)oxy)-cyclopentyl)-5-(1-methyl-1H-pyrazol-4-yl)nicotinamide]: the GI50 in assay [1] lay within 100 to 500 nM. Besides, the negative-log IC50 (pIC50) in assay [2] is more than 8.00.

With `Cc1cccc(C)c1CO[C@H]1CCC[C@@H]1NC(=O)c1cc(-c2cnn(C)c2)cnc1N` [Example 15, 2-amino-N-((1S,2S)-2-((2,6-dimethylbenzyl)oxy)cyclopentyl)-5-(1-methyl-1H-pyrazol-4-yl)nicotinamide], the 50% growth inhibitory concentration (GI50) in assay [1] is more than 1000 nM. Moreover, the pIC50 in assay [2] is less than 6.00.

As to `CN1CCN(c2ccc(-c3ccc(CO[C@H]4CCC[C@@H]4NC(=O)c4cc(-c5cnn(C)c5)cnc4N)cc3)cn2)CC1` [Example 148, 2-amino-5-(1-methyl-1H-pyrazol-4-yl)-N-((1S,2S)-2-((4-(6-(4-methylpiperazin-1-yl)pyridin-3-yl)benzyl)oxy)cyclopentyl)nicotinamide], in assay [1], the GI50 was more than 1000 nM. Besides, the pIC50 in assay [2] was more than 8.00.

For `Cn1cc(-c2cnc(N)c(C(=O)N[C@H]3COC[C@@H]3OCc3ccc(-c4ccc(CN5CCN(CCO)CC5)c(C(F)(F)F)c4)cc3)c2)cn1` [Example 452, 2-amino-N-((3S,4R)-4-((4′-((4-(2-hydroxyethyl)piperazin-1-yl)-methyl)-3′-(trifluoromethyl)-[1,1′-biphenyl]-4-yl)methoxy)tetrahydrofuran-3-yl)-5-(1-methyl-1H-pyrazol-4-yl)nicotinamide], the 50% growth inhibitory concentration (GI50) in assay [1] was less than 100 nM. Besides, the pIC50 in assay [2] is more than 8.00.

On to `CCc1cc(CO[C@H]2CNC[C@@H]2NC(=O)c2cc(-c3ccc(CO)cc3)cnc2N)ccc1C` [Example 389, 2-amino-N-((3S,4S)-4-((3-ethyl-4-methylbenzyl)oxy)pyrrolidin-3-yl)-5-(4-(hydroxymethyl)phenyl)nicotinamide], for which the GI50 in assay [1] is 100 to 500 nM. Besides, the pIC50 in assay [2] was more than 8.00.

As for `CC(c1ccc(-c2ccc(CO[C@H]3CN(C)C[C@@H]3NC(=O)c3cc(-c4cnn(C)c4)cnc3N)cc2)cc1)N1CCN(C)CC1` (stereo partly drawn) [Example 439, 2-amino-5-(1-methyl-1H-pyrazol-4-yl)-N-((3S,4S)-1-methyl-4-((4′-(1-(4-methylpiperazin-1-yl)ethyl)-[1,1′-biphenyl]-4-yl)methoxy)pyrrolidin-3-yl)-nicotinamide], in assay [1], the GI50 lay within 100 to 500 nM. Moreover, in assay [2], the pIC50 is more than 8.00.

Regarding `CCc1ccc(-c2ccc(CO[C@H]3CCC[C@@H]3NC(=O)c3cc(-c4cnn(C)c4)cnc3N)cc2)cc1` [Example 153, 2-amino-N-((1S,2S)-2-((4′-ethyl-[1,1′-biphenyl]-4-yl)-methoxy)cyclopentyl)-5-(1-methyl-1H-pyrazol-4-yl)nicotinamide], in assay [1], the GI50 lay in the range of 500 to 1000 nM. Moreover, the negative logarithm of the IC50 (pIC50) in assay [2] is more than 8.00.

Consider `CN1CCN(Cc2ccc(-c3ccc(CO[C@H]4CCC[C@@H]4NC(=O)c4cc(-c5cccnc5)cnc4N)cc3)cc2)CC1` [Example 375, 6-amino-N-((1S,2S)-2-((4′-((4-methylpiperazin-1-yl)methyl)-[1,1′-biphenyl]-4-yl)methoxy)cyclopentyl)-[3,3′-bipyridine]-5-carboxamide], for which, in assay [1], the GI50 is less than 100 nM. The negative-log IC50 (pIC50) in assay [2] was more than 8.00.

Regarding `COC(=O)CN1CCC(Cc2ccc(-c3ccc(CO[C@H]4CCC[C@@H]4NC(=O)c4cc(-c5cnn(C)c5)cnc4N)cc3)cc2)CC1` [Example 241, Methyl 2-(4-((4′-((((1S,2S)-2-(2-amino-5-(1-methyl-1H-pyrazol-4-yl)nicotinamido)cyclopentyl)oxy)methyl)-[1,1′-biphenyl]-4-yl)methyl)piperidin-1-yl)-acetate], in assay [1], the GI50 was in the range of 500 to 1000 nM. The pIC50 in assay [2] is more than 8.00.
